Measurements published in ChEMBL document CHEMBL1201862, “PubChem BioAssay data set” (2004).
The source made the active and inactive calls.

Assays:
[1] = biological target: T1, Tyrosine-protein phosphatase non-receptor type 22 (Homo sapiens, UniProt Q9Y2R2); type: functional
T1 sequence (Q9Y2R2 whole entry): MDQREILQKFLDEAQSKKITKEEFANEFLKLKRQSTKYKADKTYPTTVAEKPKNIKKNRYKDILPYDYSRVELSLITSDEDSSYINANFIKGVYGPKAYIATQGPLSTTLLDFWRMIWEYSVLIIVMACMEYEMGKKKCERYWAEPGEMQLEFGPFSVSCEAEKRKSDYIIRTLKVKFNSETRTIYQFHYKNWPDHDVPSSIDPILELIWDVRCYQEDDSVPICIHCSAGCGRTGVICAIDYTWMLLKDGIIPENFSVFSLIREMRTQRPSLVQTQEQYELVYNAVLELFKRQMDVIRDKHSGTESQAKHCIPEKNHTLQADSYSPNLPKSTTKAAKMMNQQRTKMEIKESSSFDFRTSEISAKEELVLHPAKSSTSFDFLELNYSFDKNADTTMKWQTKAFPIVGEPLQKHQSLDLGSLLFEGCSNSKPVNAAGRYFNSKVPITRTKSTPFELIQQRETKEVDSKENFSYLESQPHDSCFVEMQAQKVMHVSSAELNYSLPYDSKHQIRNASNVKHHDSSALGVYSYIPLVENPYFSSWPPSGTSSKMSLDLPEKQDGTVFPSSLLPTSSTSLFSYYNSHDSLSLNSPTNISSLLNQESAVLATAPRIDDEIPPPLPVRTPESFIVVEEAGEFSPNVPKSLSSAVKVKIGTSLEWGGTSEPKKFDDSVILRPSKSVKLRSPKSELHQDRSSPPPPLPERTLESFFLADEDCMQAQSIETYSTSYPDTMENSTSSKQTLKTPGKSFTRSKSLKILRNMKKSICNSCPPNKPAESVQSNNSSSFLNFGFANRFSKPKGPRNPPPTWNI

[2] = biological target: T2, Tyrosine-protein phosphatase non-receptor type 7 (Homo sapiens, UniProt P35236); type: functional
T2 sequence (P35236 whole entry): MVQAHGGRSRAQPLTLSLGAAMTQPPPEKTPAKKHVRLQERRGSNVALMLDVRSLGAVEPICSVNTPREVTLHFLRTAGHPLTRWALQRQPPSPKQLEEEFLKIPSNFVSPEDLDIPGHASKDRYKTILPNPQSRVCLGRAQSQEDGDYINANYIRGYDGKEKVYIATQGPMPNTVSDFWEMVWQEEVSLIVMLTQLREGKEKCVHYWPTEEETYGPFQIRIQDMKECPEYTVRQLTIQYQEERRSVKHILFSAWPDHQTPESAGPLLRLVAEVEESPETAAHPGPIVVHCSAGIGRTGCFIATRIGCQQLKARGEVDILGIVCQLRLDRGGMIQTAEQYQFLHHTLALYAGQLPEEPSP

[3] = biological target: T1, Tyrosine-protein phosphatase non-receptor type 22; type: functional; remark: listed apart in the source
[4] = biological target: T3, Bcl-2-related protein A1 (Mus musculus, UniProt Q07440); type: functional;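 further: confirmatory dose–response counterscreen on Bfl-1, used to check hits from a UBC13 polyubiquitin inhibitor campaign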
T3 sequence (Q07440 whole entry): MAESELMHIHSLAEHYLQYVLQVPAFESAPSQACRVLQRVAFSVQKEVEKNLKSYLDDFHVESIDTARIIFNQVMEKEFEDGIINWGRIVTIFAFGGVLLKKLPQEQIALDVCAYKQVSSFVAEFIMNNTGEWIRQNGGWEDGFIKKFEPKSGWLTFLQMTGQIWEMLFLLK

[5] = test system: Streptococcus sp. 'group A'; assay: growth inhibition of control SK(-) GAS strain, dose response, counter-screen for streptokinase expression inhibitor project, luminescence, kanamycin, BacTiterGlo, confirmation (AID 1900); type: functional, organism-based
[6] = test system: Streptococcus; assay: Group A Streptococcus viability loss, dose response, counter-screen for streptokinase expression inhibitor project, luminescence, BacTiterGlo (AID 1915); type: functional, organism-based;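 further: potency for reduction of bacterial viability or growth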
[7] = biological target: T4, Ubiquitin-conjugating enzyme E2 N (Homo sapiens, UniProt P61088); type: functional
T4 sequence (P61088 whole entry): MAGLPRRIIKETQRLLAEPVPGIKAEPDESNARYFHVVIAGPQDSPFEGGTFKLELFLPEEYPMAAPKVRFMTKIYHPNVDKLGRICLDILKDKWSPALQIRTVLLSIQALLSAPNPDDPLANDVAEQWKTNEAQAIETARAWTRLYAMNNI

[8] = biological target: T5, Streptokinase A (Streptococcus pyogenes serotype M1, UniProt P10520); assay: S. pyogenes streptokinase expression inhibitors, potency, dose response, plasminogen activation absorbance, OD405 (AID 1914); type: functional, Streptococcus pyogenes M1 GAS;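 further: secreted streptokinase activity via plasminogen activation per viability signal from cell pellet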
T5 sequence (P10520 whole entry): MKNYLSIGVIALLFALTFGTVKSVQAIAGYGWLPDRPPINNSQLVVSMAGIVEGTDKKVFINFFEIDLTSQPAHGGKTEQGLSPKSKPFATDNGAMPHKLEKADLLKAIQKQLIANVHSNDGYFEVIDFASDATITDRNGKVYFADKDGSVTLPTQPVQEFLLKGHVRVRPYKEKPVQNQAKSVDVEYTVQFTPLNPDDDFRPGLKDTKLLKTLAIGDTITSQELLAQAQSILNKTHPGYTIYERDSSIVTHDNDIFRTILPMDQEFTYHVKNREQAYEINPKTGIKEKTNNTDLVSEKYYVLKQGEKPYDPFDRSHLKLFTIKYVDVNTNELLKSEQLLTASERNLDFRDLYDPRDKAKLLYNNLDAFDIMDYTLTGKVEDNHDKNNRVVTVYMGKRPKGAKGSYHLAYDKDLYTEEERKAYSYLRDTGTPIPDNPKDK

[9] = biological target: T4, Ubiquitin-conjugating enzyme E2 N; type: functional; remark: listed apart in the source
[10] = biological target: Voltage-dependent T-type calcium channel subunit alpha-1H (Homo sapiens, UniProt O95180); assay: Cav3.2 T-type channel blockers, cell-based, SynthLib3 library, HEK293 Cav3.2, fluorescence (AID 493041); type: functional
[11] = biological target: T6, Low molecular weight phosphotyrosine protein phosphatase (Homo sapiens, UniProt P24666); type: functional; conditions: read-out: IC50_Mean
T6 sequence (P24666 whole entry): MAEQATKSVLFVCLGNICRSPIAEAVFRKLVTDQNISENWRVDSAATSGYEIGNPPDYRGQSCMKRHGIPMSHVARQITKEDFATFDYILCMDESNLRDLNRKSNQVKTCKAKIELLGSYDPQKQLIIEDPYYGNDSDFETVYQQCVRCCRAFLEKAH

[12] = biological target: T7, Dual specificity protein phosphatase 3 (Homo sapiens, UniProt P51452); assay: VHR phosphatase inhibition, dose response, selectivity assay for STEP inhibitor project, biochemical (AID 602374); type: functional; conditions: read-out: IC50_Mean
[13] = growth suppression of beta-catenin-knockout colon cells, dose response, cell-based, HCT116, human colon tumor (AID 1045); type: functional;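 further: HCT116 colon tumor cells with beta catenin knocked out; cells exposed to compound for 60 hours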
[14] = biological target: Tyrosine-protein phosphatase non-receptor type 5 (Homo sapiens, UniProt P54829); assay: STEP phosphatase inhibitors, confirmation, biochemical, fluorescence intensity, uHTS hits (AID 602372); type: functional; conditions: read-out: IC50_Mean
[15] = biological target: T7, Dual specificity protein phosphatase 3; assay: VHR1 phosphatase inhibitors, primary screen, biochemical, absorbance, uHTS (AID 1654)
[16] = biological target: T8, Dual specificity protein phosphatase 6 (Rattus norvegicus, UniProt Q64346); assay: MKP-3 phosphatase inhibitors, primary screen, biochemical, rat enzyme, in vitro (AID 425)
T8 sequence (Q64346 whole entry): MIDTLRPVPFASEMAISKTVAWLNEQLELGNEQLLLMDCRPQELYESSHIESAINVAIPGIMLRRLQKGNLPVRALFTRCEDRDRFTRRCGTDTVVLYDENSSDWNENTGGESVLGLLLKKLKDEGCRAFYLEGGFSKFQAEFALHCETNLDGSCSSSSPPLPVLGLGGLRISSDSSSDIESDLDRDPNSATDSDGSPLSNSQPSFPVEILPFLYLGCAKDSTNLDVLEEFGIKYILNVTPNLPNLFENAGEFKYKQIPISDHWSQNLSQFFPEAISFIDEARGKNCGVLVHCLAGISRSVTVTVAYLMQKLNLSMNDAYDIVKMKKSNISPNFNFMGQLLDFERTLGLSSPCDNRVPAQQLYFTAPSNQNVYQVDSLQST

[17] = biological target: T6, Low molecular weight phosphotyrosine protein phosphatase; type: functional; conditions: read-out: IC50_Mean; remark: listed apart in the source
[18] = biological target: T7, Dual specificity protein phosphatase 3; assay: VHR1 phosphatase inhibitors, biochemical (AID 1878)
[19] = biological target: Tyrosine-protein phosphatase non-receptor type 11 (Homo sapiens, UniProt Q06124); assay: SHP2 phosphatase inhibition, dose response, selectivity assay for STEP inhibitor project, biochemical (AID 602367); type: functional; conditions: read-out: IC50_Mean
[20] = growth suppression of PTEN-null colon cells, dose response, cell-based, HCT116 PTEN knockout (AID 1047); type: functional;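 further: HCT116 colon tumor cells with PTEN knocked out; cells exposed to compound for 60 hours before readout; potency for loss of cell viability measured by luminescence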
[21] = biological target: Signal transducer and activator of transcription 1-alpha/beta (Homo sapiens, UniProt P42224); assay: STAT3 inhibitors, late-stage profile, late-stage follow-up, cell-based, STAT1 panel, qPCR, cytotoxicity, panel member STAT1 Inhibition (AID 2078)
[22] = biological target: Signal transducer and activator of transcription 3 (Homo sapiens, UniProt P40763); assay: STAT3 inhibitors, late-stage profile, late-stage follow-up, cell-based, STAT1 panel, qPCR, cytotoxicity, panel member STAT3 Inhibition (AID 2078)
[23] = biological target: Tumor necrosis factor (Homo sapiens, UniProt P01375); assay: TNFa-triggered NF-kB activation inhibitors, SAR follow-up, cell-based, set 3 (AID 2801); type: functional
[24] = biological target: T9, Nucleotide-binding oligomerization domain-containing protein 1 (Homo sapiens, UniProt Q9Y239); assay: SAR analysis of compounds that inhibit NOD1 - Set 3. [Related pubchem assays (depositor defined):AID1566, AID1575, AID1578, AID1849, AID1852, AID2333, AID2335, AID2466]; type: functional
T9 sequence (Q9Y239 whole entry): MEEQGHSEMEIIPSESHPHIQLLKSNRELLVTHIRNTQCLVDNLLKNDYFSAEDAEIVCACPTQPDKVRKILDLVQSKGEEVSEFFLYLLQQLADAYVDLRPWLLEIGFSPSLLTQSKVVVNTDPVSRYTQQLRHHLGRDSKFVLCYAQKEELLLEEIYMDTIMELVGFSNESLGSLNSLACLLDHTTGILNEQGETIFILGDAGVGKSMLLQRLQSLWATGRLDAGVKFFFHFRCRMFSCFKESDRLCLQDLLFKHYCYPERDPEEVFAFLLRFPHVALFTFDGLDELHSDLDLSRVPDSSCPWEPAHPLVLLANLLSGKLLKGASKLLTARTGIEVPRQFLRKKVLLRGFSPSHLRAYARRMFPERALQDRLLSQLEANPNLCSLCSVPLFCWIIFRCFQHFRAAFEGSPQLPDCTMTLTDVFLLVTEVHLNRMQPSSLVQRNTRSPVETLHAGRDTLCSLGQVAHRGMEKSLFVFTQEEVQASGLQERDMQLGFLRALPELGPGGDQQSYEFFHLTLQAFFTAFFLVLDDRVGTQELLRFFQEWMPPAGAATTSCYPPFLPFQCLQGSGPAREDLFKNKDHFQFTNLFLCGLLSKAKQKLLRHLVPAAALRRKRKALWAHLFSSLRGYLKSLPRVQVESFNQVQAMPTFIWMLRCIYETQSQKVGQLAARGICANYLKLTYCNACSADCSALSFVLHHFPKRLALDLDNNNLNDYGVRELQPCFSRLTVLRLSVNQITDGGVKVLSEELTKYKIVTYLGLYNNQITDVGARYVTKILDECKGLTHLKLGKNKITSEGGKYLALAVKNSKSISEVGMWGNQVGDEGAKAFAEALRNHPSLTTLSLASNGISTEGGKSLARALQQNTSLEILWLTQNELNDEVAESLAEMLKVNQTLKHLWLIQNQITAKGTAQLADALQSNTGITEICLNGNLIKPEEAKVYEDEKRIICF

[25] = biological target: Nucleotide-binding oligomerization domain-containing protein 2 (Homo sapiens, UniProt Q9HC29); assay: NOD2 signaling inhibitors, analog potency, SAR follow-up, cell-based, set 3 (AID 2799); type: functional
[26] = biological target: Glyceraldehyde-3-phosphate dehydrogenase (Homo sapiens, UniProt P04406)
[27] = biological target: T3, Bcl-2-related protein A1; assay: Bfl-1 binding inhibitors, SAR follow-up, biochemical, fluorescence polarization (AID 1070)
[28] = biological target: T3, Bcl-2-related protein A1; assay: Bfl-1 inhibitors blocking BH3 peptide binding, confirmation, biochemical, TR-FRET, mouse Bfl-1 (AID 621);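 further: TR-FRET binding of GST-Bfl-1 to FITC-labelled Bid peptide via terbium antibody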
[29] = test system: HEK293; assay: SAR analysis of compounds that are cytotoxic to HEK293 - Set 3. [Related pubchem assays (depositor defined):AID1575, AID1578, AID1848, AID1849, AID2001, AID2333, AID2334, AID2335, AID2337, AID2469]; type: functional, cell-based; conditions: Homo sapiens

T7 sequence (P51452 whole entry): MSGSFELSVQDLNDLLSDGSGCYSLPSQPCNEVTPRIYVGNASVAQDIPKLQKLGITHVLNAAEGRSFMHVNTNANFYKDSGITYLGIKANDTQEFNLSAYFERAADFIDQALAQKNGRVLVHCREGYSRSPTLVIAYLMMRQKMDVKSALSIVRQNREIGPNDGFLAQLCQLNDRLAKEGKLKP
Sequence of Tyrosine-protein phosphatase non-receptor type 11 (Q06124 whole entry): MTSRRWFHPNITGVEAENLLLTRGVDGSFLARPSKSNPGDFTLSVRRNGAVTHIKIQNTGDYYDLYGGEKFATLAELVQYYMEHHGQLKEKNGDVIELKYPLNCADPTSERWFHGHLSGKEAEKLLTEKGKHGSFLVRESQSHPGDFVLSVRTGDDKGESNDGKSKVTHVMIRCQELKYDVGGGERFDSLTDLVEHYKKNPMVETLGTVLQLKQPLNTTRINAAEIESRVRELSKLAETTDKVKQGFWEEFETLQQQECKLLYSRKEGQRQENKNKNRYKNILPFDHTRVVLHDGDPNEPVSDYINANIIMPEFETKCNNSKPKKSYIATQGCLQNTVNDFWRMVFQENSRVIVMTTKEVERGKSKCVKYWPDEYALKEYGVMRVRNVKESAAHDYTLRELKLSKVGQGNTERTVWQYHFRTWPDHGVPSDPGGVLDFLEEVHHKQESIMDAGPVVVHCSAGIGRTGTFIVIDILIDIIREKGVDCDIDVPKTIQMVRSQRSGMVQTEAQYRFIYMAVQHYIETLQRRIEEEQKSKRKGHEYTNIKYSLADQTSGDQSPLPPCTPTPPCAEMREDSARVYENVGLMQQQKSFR
Sequence of Tumor necrosis factor (P01375 whole entry, the tested form may be a part): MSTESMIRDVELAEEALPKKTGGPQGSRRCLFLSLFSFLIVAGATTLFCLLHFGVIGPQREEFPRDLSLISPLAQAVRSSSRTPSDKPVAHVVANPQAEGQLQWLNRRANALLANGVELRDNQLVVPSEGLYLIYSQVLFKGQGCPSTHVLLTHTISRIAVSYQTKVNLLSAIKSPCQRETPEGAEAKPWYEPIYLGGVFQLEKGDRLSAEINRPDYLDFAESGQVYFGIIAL
Sequence of Signal transducer and activator of transcription 1-alpha/beta (P42224 whole entry): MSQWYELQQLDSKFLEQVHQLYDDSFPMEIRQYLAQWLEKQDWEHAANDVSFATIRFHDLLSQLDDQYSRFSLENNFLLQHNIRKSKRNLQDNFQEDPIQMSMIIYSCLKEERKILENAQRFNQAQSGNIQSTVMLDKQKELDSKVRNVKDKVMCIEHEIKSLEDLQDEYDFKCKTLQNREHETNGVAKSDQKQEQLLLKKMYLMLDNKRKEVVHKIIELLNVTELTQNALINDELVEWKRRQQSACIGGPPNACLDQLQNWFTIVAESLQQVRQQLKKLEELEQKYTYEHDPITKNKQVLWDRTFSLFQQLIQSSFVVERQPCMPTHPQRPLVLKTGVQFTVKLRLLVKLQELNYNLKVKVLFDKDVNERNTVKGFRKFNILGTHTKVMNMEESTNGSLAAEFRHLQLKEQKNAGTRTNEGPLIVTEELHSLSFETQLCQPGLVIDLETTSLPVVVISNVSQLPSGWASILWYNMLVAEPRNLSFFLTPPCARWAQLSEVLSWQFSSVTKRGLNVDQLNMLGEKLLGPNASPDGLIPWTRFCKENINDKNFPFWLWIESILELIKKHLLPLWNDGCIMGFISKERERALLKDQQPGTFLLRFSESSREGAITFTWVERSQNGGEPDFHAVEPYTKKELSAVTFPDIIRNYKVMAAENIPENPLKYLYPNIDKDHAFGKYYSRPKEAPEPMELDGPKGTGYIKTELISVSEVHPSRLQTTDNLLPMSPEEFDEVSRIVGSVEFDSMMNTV
Sequence of Nucleotide-binding oligomerization domain-containing protein 2 (Q9HC29 whole entry, the tested form may be a part): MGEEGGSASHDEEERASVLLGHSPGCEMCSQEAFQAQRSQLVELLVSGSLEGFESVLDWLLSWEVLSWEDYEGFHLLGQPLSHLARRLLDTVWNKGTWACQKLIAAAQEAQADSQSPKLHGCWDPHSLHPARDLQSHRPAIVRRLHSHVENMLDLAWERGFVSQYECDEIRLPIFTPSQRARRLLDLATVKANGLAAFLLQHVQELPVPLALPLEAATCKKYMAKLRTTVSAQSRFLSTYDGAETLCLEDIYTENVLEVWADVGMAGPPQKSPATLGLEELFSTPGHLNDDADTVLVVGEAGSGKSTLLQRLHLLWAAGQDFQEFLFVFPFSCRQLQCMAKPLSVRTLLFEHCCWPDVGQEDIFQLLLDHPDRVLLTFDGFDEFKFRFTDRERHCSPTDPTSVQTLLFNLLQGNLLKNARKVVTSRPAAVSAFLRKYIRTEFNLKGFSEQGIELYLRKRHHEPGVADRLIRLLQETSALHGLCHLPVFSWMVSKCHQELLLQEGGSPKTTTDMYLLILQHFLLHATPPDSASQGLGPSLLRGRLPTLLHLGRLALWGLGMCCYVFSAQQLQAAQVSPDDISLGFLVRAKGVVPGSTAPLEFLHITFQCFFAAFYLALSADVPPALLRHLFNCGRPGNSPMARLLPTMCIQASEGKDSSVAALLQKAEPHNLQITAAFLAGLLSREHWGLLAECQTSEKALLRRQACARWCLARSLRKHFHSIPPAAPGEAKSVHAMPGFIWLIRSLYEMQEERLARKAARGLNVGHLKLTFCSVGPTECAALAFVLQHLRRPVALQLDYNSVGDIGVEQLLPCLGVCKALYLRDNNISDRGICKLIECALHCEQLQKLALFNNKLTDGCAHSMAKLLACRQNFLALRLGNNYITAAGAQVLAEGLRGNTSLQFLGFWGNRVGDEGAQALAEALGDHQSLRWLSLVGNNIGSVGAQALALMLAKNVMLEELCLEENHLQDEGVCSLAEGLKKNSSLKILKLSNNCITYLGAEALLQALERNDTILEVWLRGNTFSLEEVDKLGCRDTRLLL
Sequence of Glyceraldehyde-3-phosphate dehydrogenase (P04406 whole entry): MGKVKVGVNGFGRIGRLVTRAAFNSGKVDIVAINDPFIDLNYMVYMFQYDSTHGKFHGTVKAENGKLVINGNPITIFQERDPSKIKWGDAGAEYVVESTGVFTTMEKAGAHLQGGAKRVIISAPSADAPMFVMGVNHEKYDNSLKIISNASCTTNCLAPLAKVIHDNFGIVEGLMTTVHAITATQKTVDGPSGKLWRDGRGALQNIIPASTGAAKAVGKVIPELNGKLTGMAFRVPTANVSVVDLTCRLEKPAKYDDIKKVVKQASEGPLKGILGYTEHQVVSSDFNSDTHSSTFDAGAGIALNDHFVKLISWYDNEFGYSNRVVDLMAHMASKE
Sequence of Tyrosine-protein phosphatase non-receptor type 5 (P54829 whole entry): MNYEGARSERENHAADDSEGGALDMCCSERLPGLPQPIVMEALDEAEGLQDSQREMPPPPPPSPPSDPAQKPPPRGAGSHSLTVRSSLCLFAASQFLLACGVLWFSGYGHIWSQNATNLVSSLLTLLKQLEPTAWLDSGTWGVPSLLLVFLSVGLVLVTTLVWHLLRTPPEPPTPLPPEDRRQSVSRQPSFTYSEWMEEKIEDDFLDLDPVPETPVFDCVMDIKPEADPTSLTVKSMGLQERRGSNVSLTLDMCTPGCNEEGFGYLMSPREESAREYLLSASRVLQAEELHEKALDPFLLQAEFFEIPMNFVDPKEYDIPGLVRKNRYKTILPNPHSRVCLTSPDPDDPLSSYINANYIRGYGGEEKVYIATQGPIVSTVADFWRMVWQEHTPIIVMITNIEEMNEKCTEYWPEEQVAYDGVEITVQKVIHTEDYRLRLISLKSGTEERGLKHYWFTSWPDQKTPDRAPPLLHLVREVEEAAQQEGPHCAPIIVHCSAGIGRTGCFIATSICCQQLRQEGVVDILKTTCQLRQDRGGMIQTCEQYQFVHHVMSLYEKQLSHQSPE
Sequence of Signal transducer and activator of transcription 3 (P40763 whole entry): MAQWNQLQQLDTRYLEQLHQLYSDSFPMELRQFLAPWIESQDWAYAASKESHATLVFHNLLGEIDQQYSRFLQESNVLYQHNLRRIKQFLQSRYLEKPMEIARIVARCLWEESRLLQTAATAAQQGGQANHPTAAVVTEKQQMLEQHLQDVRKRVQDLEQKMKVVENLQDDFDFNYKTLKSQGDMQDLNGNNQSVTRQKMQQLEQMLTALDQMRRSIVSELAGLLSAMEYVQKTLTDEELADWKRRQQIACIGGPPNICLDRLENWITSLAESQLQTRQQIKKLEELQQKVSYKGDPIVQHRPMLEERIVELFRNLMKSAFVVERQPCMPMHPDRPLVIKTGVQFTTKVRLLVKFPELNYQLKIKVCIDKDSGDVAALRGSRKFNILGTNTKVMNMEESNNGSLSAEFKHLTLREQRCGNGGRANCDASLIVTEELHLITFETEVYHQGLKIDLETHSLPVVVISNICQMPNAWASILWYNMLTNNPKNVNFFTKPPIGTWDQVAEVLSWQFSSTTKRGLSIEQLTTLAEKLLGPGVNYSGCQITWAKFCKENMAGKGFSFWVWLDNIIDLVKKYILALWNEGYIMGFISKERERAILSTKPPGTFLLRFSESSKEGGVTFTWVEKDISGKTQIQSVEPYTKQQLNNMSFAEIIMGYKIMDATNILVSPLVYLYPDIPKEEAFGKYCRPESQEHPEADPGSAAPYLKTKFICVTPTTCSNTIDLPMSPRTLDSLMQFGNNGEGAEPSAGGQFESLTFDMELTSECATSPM

O=C(C[S+]([O-])CC(=O)Nc1ccc(Cl)cc1)NCC1OCCc2ccccc21 (centres undefined)
IC50 [1]: > 79.4 µM (inactive)
IC50 [2]: > 79.4 µM (inactive)
IC50 [3]: > 79.4 µM (inactive)

COc1ccc(OCC(=O)NNC(=S)NC(=O)C2CC2)cc1
IC50 [4]: > 20 µM (inactive)
EC50 [5]: 7.37 µM (active)
EC50 [6]: 23.3 µM (active)
IC50 [7]: 6.63 µM (active)
EC50 [8]: > 150 µM (not active)
IC50 [9]: 14.8 µM (active)

CCC(CC)CN1CC2CCC(NC(=O)c3cc(Cl)cc(Cl)c3)C2C1 (centres undefined)
EC50 [10]: 2.4 µM (active)

Cc1ccc(-c2nc(NC(=O)CSc3cc(C)c4ccccc4n3)ns2)cc1
IC50 [11]: 9.06 µM (active)
IC50 [12]: 1.31 µM (active)
EC50 [13]: 17.9 µM (active)
IC50 [14]: 3.06 µM (active)
IC50 [15]: 27.3 µM (active)
IC50 [16]: 24.3 µM (active)
IC50 [17]: 11.7 µM (active)
IC50 [18]: 8.86 µM (active)
IC50 [19]: 0.77 µM (active)
EC50 [20]: 29.1 µM (active)

COc1ccc(CN2CCN(c3ncnc4sc5c(c34)CCCCC5)CC2)cc1
IC50 [21]: > 55.7 µM (inactive)
IC50 [22]: > 18.6 µM (inactive)

COc1ccc(-c2cc(N)n(S(=O)(=O)c3ccc(C(C)(C)C)cc3)n2)cc1OC
IC50 [23]: > 20 µM (inactive)
IC50 [24]: > 20 µM (inactive)
IC50 [25]: > 20 µM (inactive)
IC50 [26]: > 100 µM (not active)
IC50 [27]: > 100 µM (not active)
IC50 [28]: > 100 µM (not active)
IC50 [29]: > 20 µM (inactive)
